Tests used:
[1] = DPPH scavenging antioxidant assay; conditions: concentration providing 50% of radicals scavenging activity; mean ± SD, n = 3
Experimental: The experiments were performed according to the literature protocol (Prior et al., [2005]). All tested compounds were initially dissolved in DMSO. The initial concentration of DPPH in methanol was 6.58 × 10^−5 M. A volume of 140 μL of DPPH solution was placed into a 96-well microplate, and then 10 μL solution of the tested compounds was added. Pure DMSO (10 μL) was used as the control. The absorbance at 517 nm was measured after 30 min period of incubation in the dark at 25°C. The Equation (1) was used for calculation of the scavenging activity:
(1) Scavenging activity (%)=Acontrol- Asample/Acontrol×100
where Asample and Acontrol refer to the absorbances at 517 nm of the sample and control, respectively. IC50 values were calculated from the graph of scavenging activity against the concentrations of the samples. IC50 represents the total antioxidant concentration of the sample which decreases the amount of the initial DPPH radical by 50%. Ascorbic acid (vitamin C) was used as positive control (concentration range 10–500 μM).

[2] = system: A549 (non-small cell lung); test: Antiproliferative activity, A549; format: cell-based, human; conditions: for GI50: Homo sapiens
Experimental: (§1) The in vitro antiproliferative activity of investigated compounds was evaluated against six human solid tumor cell lines: A549 (non-small cell lung), HBL-100, (breast), HeLa (cervix), SW1573 (non-small cell lung), as drug sensitive lines, T-47D (breast) and WiDr (colon) as drug resistant lines. These cell lines were a kind gift from Prof. G. J. Peters (VU Medical Center, Amsterdam, The Netherlands). For selectivity studies, the human fibroblasts BJ-hTert cell line was used, which was obtained from Dr. R. Freire (HUC, Tenerife, Canary Islands). Cells were kept in culture medium under standard conditions: RPMI 1640 medium, fetal bovine serum (5%), glutamine (2 mM), penicillin G (100 units/mL) and streptomycin (0.1 mg/mL). Antiproliferative tests were conducted as described earlier (Skehan et al., [1990]; Miranda et al., [2006]). Tested compounds were dissolved in DMSO at an initial concentration of 40 mM. DMSO was used as negative control (0.25% v/v). Antiproliferative activity of the compounds was expressed as GI50, which is the concentration of the compound that inhibits 50% of the culture growth.

T-47D (breast) = test: Antiproliferative activity, T-47D; format: cell-based, human
Experimental: as §1

HeLa (cervix) = test: Antiproliferative activity, HeLa; format: cell-based, human; conditions: for GI50: Homo sapiens
Experimental: as §1

MAO A = target: T1, MAO A (Homo sapiens, UniProt P21397); test: MAO A inhibition, discontinuous fluorimetric kynuramine assay; format: biochemical; conditions: for inhibition at 1 µM: 1 μM inhibitor, mean ± SD, n = 2, normalized to control
T1 construct: purchased Sigma-Aldrich
T1 sequence (P21397 1-527): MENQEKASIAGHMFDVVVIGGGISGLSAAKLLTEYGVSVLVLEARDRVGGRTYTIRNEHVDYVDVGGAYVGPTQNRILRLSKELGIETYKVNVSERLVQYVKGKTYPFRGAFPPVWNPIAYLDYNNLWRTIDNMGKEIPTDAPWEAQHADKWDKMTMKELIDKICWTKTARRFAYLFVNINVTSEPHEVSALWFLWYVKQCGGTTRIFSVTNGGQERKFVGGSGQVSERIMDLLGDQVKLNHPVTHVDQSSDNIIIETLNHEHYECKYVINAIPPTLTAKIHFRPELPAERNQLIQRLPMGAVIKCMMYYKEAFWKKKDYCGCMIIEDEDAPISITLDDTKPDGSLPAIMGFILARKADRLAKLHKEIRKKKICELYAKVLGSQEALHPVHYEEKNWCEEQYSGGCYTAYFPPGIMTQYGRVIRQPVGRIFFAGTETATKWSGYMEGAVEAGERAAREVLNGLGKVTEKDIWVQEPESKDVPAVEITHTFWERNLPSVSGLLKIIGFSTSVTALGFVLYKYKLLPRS
Experimental: MAO A and B inhibition capacities were investigated using a discontinuous fluorimetric assay (Meiring et al., [2013]) as described previously by using human recombinant membrane-bound MAO purchased from Sigma-Aldrich (Affini et al., [2018]). Briefly, remained enzyme activity with inhibitor, either 1 μM (one-point) or concentrations ranging from 0.0001 to 10 μM, was assessed in the presence of kynuramine [2 × KM, KM = 20 μM (MAO A), KM = 30 μM (MAO B)] in potassium phosphate buffer (pH 7.4). Reactions were started by addition of enzyme and stopped by manual addition of sodium hydroxide (2 N) after 20 min. Enzyme activity was determined by detection of 4-hydroxyquinoline (λEx = 320 nm, λEm = 405 nm). Data were analyzed using GraphPad PRISM 6. For one-point measurements data were calculated as percentage of control and expressed as mean ± standard deviation (%). […] Data were obtained from two (one-point measurements) or at least three (IC50 values) independent experiments, each performed in duplicates.

WiDr (colon) = test: Antiproliferative activity, WiDr; format: cell-based, human; conditions: for GI50: Homo sapiens
Experimental: as §1

[3] = Total reducing power (TRP), modified potassium ferricyanide reduction method; conditions: concentration providing 0.500 of absorbance at 700 nm; mean ± SD, n = 3
Experimental: The mixture containing 0.5 mL of phosphate buffer (0.2 M, pH = 6.6), 0.5 mL of K3[Fe(CN)6] (1%; w/v) and 0.5 mL of the samples (100–1,500 μM) was incubated at 50°C for 20 min. A volume of 0.5 mL of trichloroacetic acid (TCA, 10%; w/v), 0.5 mL of Milli-Q water and 0.5 mL of FeCl3 (0.1%; w/v) was added, followed by intensive vortexing. The absorbance of the resulting mixture was measured after 60 min at 700 nm using phosphate buffer as blank (Oyaizu, [1986]).
Volume of 0.4 mL of sample solution (50–1,000 μM) was mixed with 1.6 mL of reagent solution [0.6 M H2SO4, 28 mM Na3PO4, and 4 mM (NH4)2MoO4] and resulting mixtures were incubated at 95°C for 90 min. The cooled reaction mixtures were then centrifuged for 10 min (3,000 rpm). The absorbance of the supernatant solution was measured, 1 h after centrifugation, at 695 nm against reagent solution as blank. An increased absorbance in reading in both assays indicated increased antioxidant power, expressed as EC50 values (the sample concentration giving absorbance of 0.500 from the graph of absorbance at 700 nm or 695 nm against compound concentration) (Prieto et al., [1999]).

[4] = system: human fibroblasts BJ-hTert cell line; test: Selectivity, non-transformed fibroblasts BJ-hTert; format: cell-based; conditions: Fibroblast; BJ-hTert normal human cell line; concentrations up to 100 μM
Experimental: as §1

GI50 (T-47D (breast); Homo sapiens, T47D) [µM]	IC50 (MAO A; mean, 95% CI, at least three experiments) [µM]	Structure (SMILES)	IC50 [1] [µM]	antiproliferative activity class A549 [2]	GI50 [2] [µM]	antiproliferative activity class T-47D (T-47D (breast); T-47D)	antiproliferative activity class HeLa (HeLa (cervix))	GI50 (HeLa (cervix)) [µM]	inhibition at 1 µM (MAO A) [%]	antiproliferative activity class WiDr (WiDr (colon))	GI50 (WiDr (colon)) [µM]	EC50 [3] [µM]	melting point [°C]	GI50 [4] [µM]	GI50 (T-47D (breast); Homo sapiens, T47D, T-47D) [µM]	GI50 (T-47D (breast); T-47D) [µM]
6.4 ± 0.9	> 10	C(=NNc1nc(-c2ccccc2)c[se]1)c1ccccc1 [Compound 1, 2-(2-benzylidenehydrazinyl)-4-phenyl-1,3-selenazole]	8.63 ± 1.66	moderate activity (moderate activity (GI50 = 10–100 μM))	28 ± 7.1	good activity (good activity (GI50 = 1–10 μM))	moderate activity (moderate activity (GI50 = 10–100 μM))	41 ± 9.5	-6.8 ± 12.6	good activity (good activity (GI50 = 1–10 μM))	4.8 ± 0.8	990 ± 92	178 to 180	> 100	–	–
–	–	COc1ccc(-c2c[se]c(NN=Cc3ccccc3)n2)cc1 [Compound 1-OMe, 2-(2-benzylidenehydrazinyl)-4-(4-methoxyphenyl)-1,3-selenazole]	54.3 ± 4.54	–	> 100	–	–	> 100	32.4 ± 3.3	–	> 100	806 ± 85	180 to 182	> 100	> 100	–
–	–	O=[N+]([O-])c1ccccc1C=NNc1nc(-c2ccccc2)c[se]1 [Compound 2, 2-(2-(2-nitrobenzylidene)hydrazinyl)-4-phenyl-1,3-selenazole]	21.9 ± 5.6	good activity (good activity (GI50 = 1–10 μM))	4.9 ± 1.5	–	good activity (good activity (GI50 = 1–10 μM))	6 ± 0.7	26.5 ± 3.7	good activity (good activity (GI50 = 1–10 μM))	5 ± 0.9	390 ± 48	183 to 184	> 100	~10	12 ± 1.5
–	–	Cc1ccc(-c2c[se]c(NN=Cc3ccccc3[N+](=O)[O-])n2)cc1 [Compound 2-Me, 2-(2-(2-nitrobenzylidene)hydrazinyl)-4-(p-tolyl)-1,3-selenazole]	20.2 ± 4.3	good activity (good activity (GI50 = 1–10 μM))	8.8 ± 2.2	–	good activity (good activity (GI50 = 1–10 μM))	7.4 ± 1.4	17.2 ± 1.9	good activity (good activity (GI50 = 1–10 μM))	8.2 ± 1	470 ± 41	170 to 171	> 100	~10	13 ± 1.3

Source: article PMC6037691, “Selenazolyl-hydrazones as Novel Selective MAO Inhibitors With Antiproliferative and Antioxidant Activities: Experimental and In-silico Studies” (Frontiers in Chemistry, 2018)
